# Test results as given in patent publication US5545618A, “GLP-1 analogs useful for diabetes treatment” (priority 1993, dated 1996).
# Like-named read-outs stand apart in the source and are kept apart here. Where no end group is shown, it is not given here.
# Assays:
# [1] = system: RIN 1046-38 cells
# Procedure: An additional test for potency of the compounds of the invention measures their ability to stimulate cAMP production in RIN 1046-38 cells. This assay can be conducted as follows:
# On day 1, 5×10^5 RIN 1046-38 cells (Drucker, D. J., et al., Proc Natl Acad Sci USA (1987) 84:3434-3438) are seeded into individual wells of 6-well dishes with 2.5 mL M199 culture medium. On day 4, cells are re-fed with fresh medium and on day 5 the assay is performed. […] Assays are only performed on cell passage ≤24.
# At time -60 min, monolayers are washed twice with 2.5 mL PBS, and medium is changed to 1.0 mL of DMEM medium plus 4.5 g/l glucose and 0.1% BSA (assay medium). At 0 time, medium is aspirated and fresh assay medium, 1.0 mL, containing test compound is added. Test compound is added in 50 ul volume of PBS plus 0.1% BSA; controls are added in vehicle alone. Incubation is continued for 0 to 60 min.
# At termination, conditioned medium and monolayer are harvested to measure both extra- and intracellular cAMP content. For extracellular measurement, medium is removed and centrifuged to remove any cellular debris. For intracellular determination, after medium removal, 1.0 mL of ice cold 95% ethanol is added to monolayer. Cells are collected by scraping, lysed by two cycles of quick freeze/thawing using liquid N2, and cell debris then removed by centrifugation. Aliquots (1/40th well content) of conditioned medium and ethanol cell extract are measured in duplicate for cAMP levels using an RIA kit by the acetylated protocol.
# Insulin secretion can also be measured by the method described by Holst, J. J., et al. FEBS Letters (1987) 211:169-174 (supra). Also useful as an assay for insulinotropic effect is the measurement of stimulation of adenylate cyclase in the RIN 1046-38 cell line. Drucker, D. J. et al., Proc Natl Acad Sci USA (1987) 84:3434-3438 (supra).
# [2] = degradation in plasma by RP-HPLC; format: in vitro ADME; details: incubation in plasma for 60 minutes; further: key: +: degradation was not observed; -: was complete after this time
# [3] = format: in vitro ADME
# Procedure: Polyclonal antisera were raised in New Zealand White rabbits against a synthetic peptide fragment corresponding to residues 24 to 37 of GLP-1(7-37) using the method of Mosjoy, S. et al., J Biol Chem (1986) 261:11880-11889. Initial immunizations were into the inguinal lymph nodes and used Freund's complete adjuvant. Two subcutaneous boosts were performed at 1 week intervals after the initial immunization and used Freund's incomplete adjuvant. For a single immunization or boost 100 μg peptide and 100 μg methylated BSA dissolved in 0.3 mL phosphate-buffered saline (PBS) were emulsified with 0.9 mL adjuvant. Bleeds (50 mL) began at week 6 after the initial immunization and continued at 1 month intervals thereafter. Repeat boosts were performed as above when titers dropped noticeably from the level of the previous bleed.
molecule,measurement,setting,value
CC[C@H](C)[C@H](NC(=O)[C@H](Cc1ccccc1)NC(=O)[C@H](CCC(=O)O)NC(=O)[C@H](CCCCN)NC(=O)[C@H](C)NC(=O)[C@H](C)NC(=O)[C@H](CCC(N)=O)NC(=O)CNC(=O)[C@H](CCC(=O)O)NC(=O)[C@H](CC(C)C)NC(=O)[C@H](Cc1ccc(O)cc1)NC(=O)[C@H](CO)NC(=O)[C@H](CO)NC(=O)[C@@H](NC(=O)[C@H](CC(=O)O)NC(=O)[C@H](CO)NC(=O)[C@@H](NC(=O)[C@H](Cc1ccccc1)NC(=O)[C@@H](NC(=O)CNC(=O)[C@@H](CC(=O)O)NC(=O)[C@H](C)NC(=O)[C@@H](N)Cc1c[nH]cn1)[C@@H](C)O)[C@@H](C)O)C(C)C)C(=O)N[C@@H](C)C(=O)N[C@@H](Cc1c[nH]c2ccccc12)C(=O)N[C@@H](CC(C)C)C(=O)N[C@H](C(=O)N[C@@H](CCCCN)C(=O)NCC(=O)N[C@@H](CCCNC(=N)N)C(=O)NCC(=O)O)C(C)C [(D^.dagger.)^9 -GLP-1(7-37)],ED50 nM Duplicate Assays (first value),[1],0.90 nM
same,ED50 nM Duplicate Assays (second value),[1],0.90 nM
same,Resistance to Degradation,[2],-
CC[C@H](C)[C@H](NC(=O)[C@H](Cc1ccccc1)NC(=O)[C@H](CCC(=O)O)NC(=O)[C@H](CCCCN)NC(=O)[C@H](C)NC(=O)[C@H](C)NC(=O)[C@H](CCC(N)=O)NC(=O)CNC(=O)[C@H](CCC(=O)O)NC(=O)[C@H](CC(C)C)NC(=O)[C@H](Cc1ccc(O)cc1)NC(=O)[C@H](CO)NC(=O)[C@H](CO)NC(=O)[C@@H](NC(=O)[C@H](CC(=O)O)NC(=O)[C@H](CO)NC(=O)[C@@H](NC(=O)[C@H](Cc1ccccc1)NC(=O)[C@@H](NC(=O)CNC(=O)[C@H](CCC(N)=O)NC(=O)[C@H](C)NC(=O)[C@@H](N)Cc1c[nH]cn1)[C@@H](C)O)[C@@H](C)O)C(C)C)C(=O)N[C@@H](C)C(=O)N[C@@H](Cc1c[nH]c2ccccc12)C(=O)N[C@@H](CC(C)C)C(=O)N[C@H](C(=O)N[C@@H](CCCCN)C(=O)NCC(=O)N[C@@H](CCCNC(=N)N)C(=O)NCC(=O)O)C(C)C [(Q)^9 GLP-1 (7-37)],Resistance to Degradation,[2],-
CC[C@H](C)[C@H](NC(=O)[C@H](Cc1ccccc1)NC(=O)[C@H](CCC(=O)O)NC(=O)[C@H](CCCCN)NC(=O)[C@H](C)NC(=O)[C@H](C)NC(=O)[C@H](CCC(N)=O)NC(=O)CNC(=O)[C@H](CCC(=O)O)NC(=O)[C@H](CC(C)C)NC(=O)[C@H](Cc1ccc(O)cc1)NC(=O)[C@H](CO)NC(=O)[C@H](CO)NC(=O)[C@@H](NC(=O)[C@H](CC(=O)O)NC(=O)[C@H](CO)NC(=O)[C@@H](NC(=O)[C@H](Cc1ccccc1)NC(=O)[C@@H](NC(=O)CNC(=O)[C@H](CCC(=O)O)NC(=O)[C@H](C)NC(=O)[C@@H](N)Cc1ccc(O)cc1)[C@@H](C)O)[C@@H](C)O)C(C)C)C(=O)N[C@@H](C)C(=O)N[C@@H](Cc1c[nH]c2ccccc12)C(=O)N[C@@H](CC(C)C)C(=O)N[C@H](C(=O)N[C@@H](CCCCN)C(=O)NCC(=O)N[C@@H](CCCNC(=N)N)C(=O)NCC(=O)O)C(C)C [(Y)^7 -GLP-1(7-37)],Resistance to Degradation,[2],-
GLP-1(7-37),ED50 nM Duplicate Assays (first value),"[1]; cAMP stimulation in RIN 1046-38 cells, first of duplicate assays",0.16 nM
same,ED50 nM Duplicate Assays (second value),"[1]; cAMP stimulation in RIN 1046-38 cells, second of duplicate assays",0.25 nM
same,ability of recovered fragment to inhibit binding of radiolabeled GLP-1(7-37) to carboxy terminal-specific antibody,[3],no diminution
HSQGTFTSDYSKYLDGQAAKEFIAWLVKGRG [(S)^8 (Q)^9 (Y)^16 (K)^18 (D)^21 -GLP-1(7-37)],Resistance to Degradation,[2],-
